What was measured:
Test in all cases: Cell viability assay
[1] = system: HMLER CD24^high/CD44^low cells; assay type: cell-based; conditions: Homo sapiens, Epithelial cell, 72 h, read-out: Antiproliferative activity IC50, HMLER CD24^high/CD44^low
MCF10A cells = assay type: cell-based; conditions: Homo sapiens, MCF-10A, 72 h, read-out: Antiproliferative activity IC50, MCF10A
[2] = system: HMLER CD24^low/CD44^high cells; assay type: cell-based, human; conditions: 72 h

Structure (SMILES): CC[C@@H](C(=O)[C@@H](C)[C@@H](O)[C@H](C)[C@@H]1O[C@@H]([C@@H](CC)C(=O)O)CC[C@@H]1C)[C@H]1O[C@]2(C=C[C@@H](O)[C@]3(CC[C@@](C)([C@H]4CC[C@](O)(CC)[C@H](C)O4)O3)O2)[C@H](C)C[C@@H]1C [Sal, salinomycin]
- IC50 [1]: 4360 ± 500 nM
- IC50 (MCF10A cells): 1130 ± 140 nM
- SI (HMLER) = IC50(HMLER CD24^high/CD44^low)/IC50(HMLER CD24^low/CD44^high) ([2]; selectivity for the mesenchymal state): 3.1
- IC50 ([2]; Homo sapiens, read-out: Antiproliferative activity IC50, HMLER CD24^low/CD44^high): 1390 ± 100 nM
